Results: patent US20090143468A1, “PET FOOD COMPOSITIONS AND METHODS” (priority 2004, published 2009)

What was measured:
[1] = Beagle feeding study, diets supplemented with SDA or linolenic acid; format: in vivo, beagles; conditions: dogs, low essential fatty acid diet 90 days
From the text: Experiments are also designed to evaluate the effect of SDA on the pet, such as a dog or cat. As an example, beagles are provided with a low essential fatty acid diet for a period of 90 days. Diets supplemented with SDA or linolenic acid are provided for the subsequent 30 days.

[2] = system: Alkaline phosphatase (ALP) activity in osteoblast cells MC3T3-E1; test: Alkaline phosphatase (ALP) activity, method of Lowry; format: cell-based; conditions: all time points evaluated; relative to linolenic acid
Protocol: (§1) Experiments are conducted to determine how SDA treatment of osteoblast-like cells in culture influence the polyunsaturated fatty acid (PUFA) composition. The osteoblast cell line MC3T3-E1 is cultured in growth medium (GM) consisting of DMEM supplemented with 10% fetal bovine serum (FBS), ascorbic acid, β-glycerol-phosphate, and 1% antimicrobial solution. The cells are plated in 24-well plates at a density of 1.2×10^4 cells per ml for 3 days until confluent. Once confluent, corresponding to the initialization of the osteoblastic phenotype, the medium is either changed for SDA or linoleic acid (LNA) treatment or cultured further in GM until subjected to the various treatments. At the end of the 3 day fatty acid treatment period, cultures are exposed to agents that induce COX-2 expression. The two agents utilized are forskolin (FSK) and interleukin-1 (IL-1). These agents are selected on the basis of their respective actions on the COX-2 gene. Forskolin, an activator of adenylate cyclase, increases cyclic-AMP (cAMP) concentrations. Interleukin-1, itself a bone resorption agent binding to its receptor on the cellular membrane, launches a cascade resulting in the activation of the transcription factor nuclear-factor κ-B (NFκB). Cyclic-AMP and NFκB both activate the expression of the COX-2 gene. […]
Enzyme activity: Alkaline phosphatase (ALP) activity is determined by the method of Lowry.

[3] = system: PGE2 production in osteoblasts; test: PGE2 formation in osteoblasts (enzyme immunoassay); format: cell-based
Protocol: as §1, with “concentrations.” for “concentrations. Interleukin-1, itself a bone resorption agent binding to its receptor on the cellular membrane, launches a cascade resulting in the activation of the transcription factor nuclear-factor κ-B (NFκB). Cyclic-AMP and NFκB both activate the expression of the COX-2 gene.”
Western Blot. […] Optical density is determined using Optimus image analyzing software (version 6.1). […]
PGE2 Formation. In the experiments, already detailed in the section on Western blotting, PGE2 levels in the medium of induced and non-induced cells are determined using an enzyme immunoassay kit (Cayman Chemical, Ann Arbor, Mich.).

[4] = system: osteoblast cell line MC3T3-E1; test: Fatty acid compositional analysis of osteoblasts; format: cell-based
Protocol: Experiments are conducted to determine how SDA treatment of osteoblast-like cells in culture influence the polyunsaturated fatty acid (PUFA) composition. The osteoblast cell line MC3T3-E1 is cultured in growth medium (GM) consisting of DMEM supplemented with 10% fetal bovine serum (FBS), ascorbic acid, β-glycerol-phosphate, and 1% antimicrobial solution. The cells are plated in 24-well plates at a density of 1.2×10^4 cells per ml for 3 days until confluent. Once confluent, corresponding to the initialization of the osteoblastic phenotype, the medium is either changed for SDA or […] (LNA) treatment or cultured further in GM until subjected to the various treatments. At the end of the 3 day fatty acid treatment period, cultures are exposed to agents that induce COX-2 expression. The two agents utilized are forskolin (FSK) and interleukin-1 (IL-1). These agents are selected on the basis of their respective actions on the COX-2 gene. Forskolin, an activator of adenylate cyclase, increases cyclic-AMP (cAMP) concentrations. Interleukin-1, itself a bone resorption agent binding to its receptor on the cellular membrane, launches a cascade resulting in the activation of the transcription factor nuclear-factor κ-B (NFκB). Cyclic-AMP and NFκB both activate the expression of the COX-2 gene. Cyclic-AMP activates the expression of the COX-2 gene via the cAMP-response element binding protein (CREBP), which binds to the cAMP response element (CRE) in the COX-2 promoter. The COX-2 promoter also contains an NFκB binding element.
Fatty Acid Compositional Analysis of Osteoblasts. Osteoblast cells exposed to the PUFA treatments (SDA and LNA) are subjected to a gas chromotographic analysis of the FAME from extracted lipids of washed cells.

other cell cultures = test: Omega-3 fatty acid concentrations in other cell cultures; format: cell-based; conditions: compared with linolenic acid (18:3n-3)
[5] = then supplemented diet 30 days, compared to linolenic acid diet

## CC/C=C\C/C=C\C/C=C\C/C=C\CCCCC(=O)O [SDA, 6Z, 9Z, 12Z, 15Z-octadecatetraenoic acid]
[1]; then SDA supplemented diet 30 days
  arachidonic acid in plasma and liver: trend of decreased arachidonic acid
[1]; [5]
  concentrations of 22:5n-3 in red blood cell membranes, plasma, and liver tissue: elevated concentrations
  concentrations of EPA in red blood cell membranes, plasma, and liver tissue: elevated concentrations
[2]
  activity of alkaline phosphatase: highest activity
[3]
  PGE2 production in osteoblasts: attenuate PGE2 production
[4]; SDA at increasing treatment levels
  concentrations of total omega-3 fatty acid in osteoblasts: increased concentrations
[4]; SDA treatment of osteoblasts
  22:5n-3 in osteoblasts: particularly elevates
  EPA in osteoblasts: particularly elevates
Other cell cultures
  altering the concentrations of omega-3 fatty acid: more effective
